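How tested: cells in 96-well plates exposed to compound for 48 hours at five concentrations. TGI denotes the concentration required for complete inhibition of growth.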
Assays:
Assay in all cases: NCI tumour cell line growth inhibition, 48 h
SNB-78 CNS = system: SNB-78 CNS
ACHN renal = system: ACHN renal
NCI-H460 lung = system: NCI-H460 lung
SF-268 CNS = system: SF-268 CNS
SF-295 CNS = system: SF-295 CNS
UO-31 renal = system: UO-31 renal
HOP-18 NSCLC = system: HOP-18 NSCLC
RXF 393 renal = system: RXF 393 renal
XF 498 CNS = system: XF 498 CNS
HCC-2998 colon = system: HCC-2998 colon
UACC-257 melanoma = system: UACC-257 melanoma
KM12 colon = system: KM12 colon
DMS 114 small cell lung = system: DMS 114 small cell lung
NCI-H23 lung = system: NCI-H23 lung
A549 NSCLC = system: A549 NSCLC
COLO 205 colon = system: COLO 205 colon
M19-MEL melanoma = system: M19-MEL melanoma
NCI-H226 lung = system: NCI-H226 lung
LXFL 529 NSCLC = system: LXFL 529 NSCLC
SK-MEL-5 melanoma = system: SK-MEL-5 melanoma
DLD-1 colon = system: DLD-1 colon
U251 CNS = system: U251 CNS
MOLT-4 leukemia = system: MOLT-4 leukemia
OVCAR-8 ovarian = system: OVCAR-8 ovarian
SW-620 colon = system: SW-620 colon
MALME-3M melanoma = system: MALME-3M melanoma
SNB-19 CNS = system: SNB-19 CNS
SF-539 CNS = system: SF-539 CNS
SN12C renal = system: SN12C renal
M14 melanoma = system: M14 melanoma
SR leukemia = system: SR leukemia
EKVX NSCLC = system: EKVX NSCLC
RPMI-8226 leukemia = system: RPMI-8226 leukemia
SK-MEL-2 melanoma = system: SK-MEL-2 melanoma
CAKI-1 renal = system: CAKI-1 renal
HL-60(TB) leukemia = system: HL-60(TB) leukemia
HT29 colon = system: HT29 colon
RXF-631 renal = system: RXF-631 renal
HCT-15 colon = system: HCT-15 colon
SNB-75 CNS = system: SNB-75 CNS
786-0 renal = system: 786-0 renal
UACC-62 melanoma = system: UACC-62 melanoma
A498 renal = system: A498 renal
CCRF-CEM leukemia = system: CCRF-CEM leukemia
OVCAR-4 ovarian = system: OVCAR-4 ovarian
NCI-H522 lung = system: NCI-H522 lung
HCT-116 colon = system: HCT-116 colon
K-562 leukemia = system: K-562 leukemia
HOP-92 NSCLC = system: HOP-92 NSCLC
DMS 273 small cell lung = system: DMS 273 small cell lung
IGROV1 ovarian = system: IGROV1 ovarian
LOX IMVI melanoma = system: LOX IMVI melanoma
TK-10 renal = system: TK-10 renal
KM20L2 colon = system: KM20L2 colon
SK-OV-3 ovarian = system: SK-OV-3 ovarian
SK-MEL-28 melanoma = system: SK-MEL-28 melanoma
OVCAR-5 ovarian = system: OVCAR-5 ovarian
HOP-62 NSCLC = system: HOP-62 NSCLC
SN12K1 renal = system: SN12K1 renal
OVCAR-3 ovarian = system: OVCAR-3 ovarian
P388/ADR leukemia = system: P388/ADR leukemia
P388 leukemia = system: P388 leukemia
NCI/ADR-RES ovarian = system: NCI/ADR-RES ovarian
MCF7 breast = system: MCF7 breast

`Cc1cc(Cl)ccc1NC(=O)C(=O)Cc1occc(=O)c1O` was tested, and the TGI (SNB-78 CNS) was greater than 100 µM, the TGI (ACHN renal) was greater than 100 µM and the TGI (NCI-H460 lung) was greater than 100 µM. For the same molecule, the TGI (SF-268 CNS) was greater than 100 µM, the TGI (SF-295 CNS) was greater than 100 µM and the TGI (UO-31 renal) was greater than 100 µM. For the same molecule, the TGI (HOP-18 NSCLC) was greater than 100 µM, the TGI (RXF 393 renal) was greater than 100 µM and the TGI (XF 498 CNS) was greater than 100 µM. It also gave a TGI (HCC-2998 colon) greater than 100 µM, a TGI (UACC-257 melanoma) greater than 100 µM and a TGI (KM12 colon) greater than 100 µM. It also gave a TGI (DMS 114 small cell lung) greater than 100 µM, a TGI (NCI-H23 lung) greater than 100 µM and a TGI (A549 NSCLC) greater than 100 µM. It also gave a TGI (COLO 205 colon) greater than 100 µM, a TGI (M19-MEL melanoma) greater than 100 µM and a TGI (NCI-H226 lung) greater than 100 µM. The TGI (LXFL 529 NSCLC) was greater than 100 µM, the TGI (SK-MEL-5 melanoma) was greater than 100 µM and the TGI (DLD-1 colon) was greater than 100 µM. For the same molecule, the TGI (U251 CNS) was greater than 100 µM, the TGI (MOLT-4 leukemia) was greater than 100 µM and the TGI (OVCAR-8 ovarian) was greater than 100 µM. The TGI (SW-620 colon) was greater than 100 µM, the TGI (MALME-3M melanoma) was greater than 100 µM and the TGI (SNB-19 CNS) was greater than 100 µM. It also gave a TGI (SF-539 CNS) greater than 100 µM, a TGI (SN12C renal) greater than 100 µM and a TGI (M14 melanoma) greater than 100 µM. It also gave a TGI (SR leukemia) greater than 100 µM, a TGI (EKVX NSCLC) greater than 100 µM and a TGI (RPMI-8226 leukemia) greater than 100 µM. For the same molecule, the TGI (SK-MEL-2 melanoma) was greater than 100 µM, the TGI (CAKI-1 renal) was greater than 100 µM and the TGI (HL-60(TB) leukemia) was greater than 100 µM. For the same molecule, the TGI (HT29 colon) was greater than 100 µM, the TGI (RXF-631 renal) was greater than 100 µM and the TGI (HCT-15 colon) was greater than 100 µM. It also gave a TGI (SNB-75 CNS) greater than 100 µM, a TGI (786-0 renal) greater than 100 µM and a TGI (UACC-62 melanoma) greater than 100 µM. The TGI (A498 renal) was greater than 100 µM, the TGI (CCRF-CEM leukemia) was greater than 100 µM and the TGI (OVCAR-4 ovarian) was greater than 100 µM. For the same molecule, the TGI (NCI-H522 lung) was greater than 100 µM, the TGI (HCT-116 colon) was greater than 100 µM and the TGI (K-562 leukemia) was greater than 100 µM. It also gave a TGI (HOP-92 NSCLC) greater than 100 µM, a TGI (DMS 273 small cell lung) greater than 100 µM and a TGI (IGROV1 ovarian) greater than 100 µM. It also gave a TGI (LOX IMVI melanoma) greater than 100 µM, a TGI (TK-10 renal) greater than 100 µM and a TGI (KM20L2 colon) greater than 100 µM. The TGI (SK-OV-3 ovarian) was greater than 100 µM, the TGI (SK-MEL-28 melanoma) was greater than 100 µM and the TGI (OVCAR-5 ovarian) was greater than 100 µM. For the same molecule, the TGI (HOP-62 NSCLC) was greater than 100 µM.
In the case of `NC(=S)N/N=C/c1ccc(OC(=O)COc2ccccc2Cl)cn1`, the TGI (SNB-78 CNS) is reported as greater than 100 µM, the TGI (NCI-H460 lung) is reported as greater than 100 µM and the TGI (SF-268 CNS) is reported as greater than 100 µM. For the same molecule, the TGI (SN12K1 renal) was greater than 100 µM, the TGI (SF-295 CNS) was greater than 100 µM and the TGI (UO-31 renal) was 98.5 µM. The TGI (HOP-18 NSCLC) was greater than 100 µM, the TGI (RXF 393 renal) was greater than 100 µM and the TGI (XF 498 CNS) was greater than 92 µM. It also gave a TGI (HCC-2998 colon) greater than 87.4 µM, a TGI (UACC-257 melanoma) greater than 92.4 µM and a TGI (KM12 colon) greater than 100 µM. For the same molecule, the TGI (NCI-H23 lung) was greater than 70.5 µM, the TGI (A549 NSCLC) was greater than 100 µM and the TGI (COLO 205 colon) was greater than 100 µM. The TGI (M19-MEL melanoma) was greater than 92.2 µM, the TGI (OVCAR-3 ovarian) was 99.1 µM and the TGI (NCI-H226 lung) was 73.9 µM. The TGI (SK-MEL-5 melanoma) was greater than 100 µM, the TGI (DLD-1 colon) was greater than 100 µM and the TGI (U251 CNS) was greater than 100 µM. It also gave a TGI (MOLT-4 leukemia) greater than 88.7 µM, a TGI (OVCAR-8 ovarian) greater than 100 µM and a TGI (SW-620 colon) greater than 100 µM. It also gave a TGI (MALME-3M melanoma) greater than 88.7 µM, a TGI (SNB-19 CNS) greater than 100 µM and a TGI (SF-539 CNS) of 52.2 µM. It also gave a TGI (SN12C renal) greater than 100 µM, a TGI (EKVX NSCLC) of 97.8 µM and a TGI (RPMI-8226 leukemia) greater than 100 µM. The TGI (SK-MEL-2 melanoma) was greater than 100 µM, the TGI (CAKI-1 renal) was greater than 100 µM and the TGI (P388/ADR leukemia) was 20.7 µM. It also gave a TGI (HL-60(TB) leukemia) of 64.9 µM, a TGI (P388 leukemia) of 13.4 µM and a TGI (HT29 colon) greater than 100 µM. It also gave a TGI (HCT-15 colon) greater than 100 µM, a TGI (SNB-75 CNS) greater than 100 µM and a TGI (UACC-62 melanoma) of 42.7 µM. The TGI (A498 renal) was greater than 100 µM, the TGI (CCRF-CEM leukemia) was greater than 65.8 µM and the TGI (OVCAR-4 ovarian) was greater than 100 µM. The TGI (NCI-H522 lung) was greater than 77.2 µM, the TGI (NCI/ADR-RES ovarian) was 59.3 µM and the TGI (HCT-116 colon) was greater than 90 µM. It also gave a TGI (K-562 leukemia) greater than 100 µM, a TGI (MCF7 breast) greater than 100 µM and a TGI (HOP-92 NSCLC) greater than 90.3 µM. For the same molecule, the TGI (DMS 273 small cell lung) was greater than 71.6 µM, the TGI (IGROV1 ovarian) was greater than 100 µM and the TGI (LOX IMVI melanoma) was greater than 100 µM. The TGI (KM20L2 colon) was greater than 100 µM, the TGI (SK-OV-3 ovarian) was greater than 100 µM and the TGI (SK-MEL-28 melanoma) was greater than 100 µM. For the same molecule, the TGI (OVCAR-5 ovarian) was 97.9 µM and the TGI (HOP-62 NSCLC) was 67.4 µM.

Reference: PubChem BioAssay (NCI)
